The results in this text go back to ChEMBL document CHEMBL1811857, “Targeting HIV entry through interaction with envelope glycoprotein 120 (gp120): synthesis and antiviral evaluation of 1,3,5-triazines with aromatic amino acids” (J Med Chem, 2011).

The structures appear in SMILES notation. Active and inactive are the calls of the source. The calls are words filed in the database; no cut-off is given here.

Data set [1] relates to Human immunodeficiency virus 2. The experiment in a line: Antiviral activity against HIV2 ROD infected in human CEM cells assessed as inhibition of virus-induced cytopathicity after 4 days. It counts as functional, organism-based. Particulars: Human immunodeficiency virus 2, ISOLATE ROD, CCRF-CEM, 96 h. On the technique in general: Protection from cytopathic effect is a common read-out in antiviral testing.

In another data set the test system is CCRF-CEM. The experiment in a line: Cytotoxicity against human CEM cells after 4 days by Coulter counter analysis. It counts as cell-based. Conditions: 96 h, read-out: EC50 (the source's name).
The subject of data set [2] is Human immunodeficiency virus 1. The experiment in a line: Antiviral activity against HIV1 3B infected in human CEM cells assessed as inhibition of virus-induced cytopathicity after 4 days. Particulars: Human immunodeficiency virus 1, 3B, CCRF-CEM, 96 h. The format is functional, organism-based.
For data set [3], the system named is Human immunodeficiency virus 1. The experiment in a line: Binding affinity to HIV1 3B recombinant gp-120 at 12.5 uM after 5 mins by surface plasmon resonance analysis.
Data set [4] has as its system Human immunodeficiency virus 1. The experiment in a line: Binding affinity to HIV1 3B recombinant gp-120 at 50 uM after 5 mins by surface plasmon resonance analysis. On the technique in general: SPR reads the build-up and loss of mass on a sensor chip optically.
Data set [5] is described as follows: Solubility of the compound at >10 uM. The format is physicochemical.

As usually defined, the EC50 is the concentration that produces a half-maximal response. Turning to `O=C(O)[C@H](Cc1c[nH]c2ccccc12)Nc1nc(NCCOCCOCCNc2nc(N[C@@H](Cc3c[nH]c4ccccc34)C(=O)O)nc(N[C@H](Cc3c[nH]c4ccccc34)C(=O)O)n2)nc(N[C@@H](Cc2c[nH]c3ccccc23)C(=O)O)n1`, the 50% effective concentration (EC50) worked out at 120 µM in data set [1] and 112 µM in data set [2]. The CC50 in the data set on CCRF-CEM was more than 250 µM.

With `O=C(O)[C@H](Cc1ccccc1)Nc1nc(N[C@@H](Cc2ccccc2)C(=O)O)nc(N2CCN(c3nc(N[C@@H](Cc4ccccc4)C(=O)O)nc(N[C@@H](Cc4ccccc4)C(=O)O)n3)CC2)n1`, the EC50 is 121 µM in data set [1] and 106 µM in data set [2]. Further, the CC50 with CCRF-CEM is more than 250 µM.

As for `O=C(O)[C@H](Cc1c[nH]c2ccccc12)Nc1nc(NCCN(CCNc2nc(N[C@@H](Cc3c[nH]c4ccccc34)C(=O)O)nc(N[C@H](Cc3c[nH]c4ccccc34)C(=O)O)n2)CCNc2nc(N[C@@H](Cc3c[nH]c4ccccc34)C(=O)O)nc(N[C@H](Cc3c[nH]c4ccccc34)C(=O)O)n2)nc(N[C@H](Cc2c[nH]c3ccccc23)C(=O)O)n1`, the EC50 turned out to be 65 µM in data set [1] and 20 µM in data set [2]. In the data set on CCRF-CEM, the CC50 is more than 250 µM.

Take `CCc1c(CNc2nc(N[C@@H](CC(=O)O)C(=O)O)nc(N[C@@H](Cc3c[nH]c4ccccc34)C(=O)O)n2)c(CC)c(CNc2nc(N[C@@H](CC(=O)O)C(=O)O)nc(N[C@@H](Cc3c[nH]c4ccccc34)C(=O)O)n2)c(CC)c1CNc1nc(N[C@@H](CC(=O)O)C(=O)O)nc(N[C@@H](Cc2c[nH]c3ccccc23)C(=O)O)n1`: the result in data set [3] was Active. The half-maximal effective concentration (EC50) in data set [1] came out at 33 µM; in data set [2], 18 µM. The CC50 with CCRF-CEM was more than 250 µM.

As to `O=C(O)[C@H](Cc1ccccc1)Nc1nc(NCCN(CCNc2nc(N[C@@H](Cc3ccccc3)C(=O)O)nc(N[C@H](Cc3ccccc3)C(=O)O)n2)CCNc2nc(N[C@@H](Cc3ccccc3)C(=O)O)nc(N[C@H](Cc3ccccc3)C(=O)O)n2)nc(N[C@H](Cc2ccccc2)C(=O)O)n1`, the EC50 in data set [1] came out at 216 µM; in data set [2], 65 µM. Further, the CC50 in the data set with CCRF-CEM is more than 250 µM.

With `CN[C@@H]1[C@H](O[C@@H]2O[C@H](CO)[C@@H](O)[C@H](OS(=O)(=O)O)[C@H]2O)[C@@H](O)[C@H](O[C@H]2c3cc(C)c(C(=O)N[C@H](C)C(=O)O)c(O)c3-c3c(cc4c(c3O)C(=O)c3cc(OC)cc(O)c3C4=O)[C@@H]2O)O[C@@H]1C` [PRADIMICIN S], in the data set on CCRF-CEM, the CC50 is more than 250 µM.

As for `O=C(O)[C@H](Cc1ccc(O)cc1)Nc1nc(NCc2ccccc2)nc(N[C@@H](Cc2ccc(O)cc2)C(=O)O)n1`, the result in data set [4] was inactive.

For `O=C(O)[C@H](Cc1ccccc1)Nc1nc(NCCOCCOCCNc2nc(N[C@@H](Cc3ccccc3)C(=O)O)nc(N[C@H](Cc3ccccc3)C(=O)O)n2)nc(N[C@@H](Cc2ccccc2)C(=O)O)n1`, the EC50 in data set [1] and in data set [2] was not below 250 µM in each case. In addition, the CC50 with CCRF-CEM is more than 250 µM.

Regarding `CCc1c(CNc2nc(N[C@@H](Cc3c[nH]c4ccccc34)C(=O)O)nc(N[C@H](Cc3c[nH]c4ccccc34)C(=O)O)n2)c(CC)c(CNc2nc(N[C@@H](Cc3c[nH]c4ccccc34)C(=O)O)nc(N[C@H](Cc3c[nH]c4ccccc34)C(=O)O)n2)c(CC)c1CNc1nc(N[C@@H](Cc2c[nH]c3ccccc23)C(=O)O)nc(N[C@H](Cc2c[nH]c3ccccc23)C(=O)O)n1`, the outcome in data set [3] was Active. Also, the concentration for a half-maximal effect (EC50) came to 22 µM in data set [1] and 19 µM in data set [2]. Besides, the CC50 in the data set with CCRF-CEM was more than 250 µM.

For the compound `CCc1c(CNc2nc(NCCc3c[nH]c4ccccc34)nc(N[C@@H](Cc3c[nH]c4ccccc34)C(=O)O)n2)c(CC)c(CNc2nc(NCCc3c[nH]c4ccccc34)nc(N[C@@H](Cc3c[nH]c4ccccc34)C(=O)O)n2)c(CC)c1CNc1nc(NCCc2c[nH]c3ccccc23)nc(N[C@@H](Cc2c[nH]c3ccccc23)C(=O)O)n1`, the result in data set [3] was Active. Also, the EC50 in data set [1] and in data set [2] was more than 10 µM each time. For the same compound, in the data set with CCRF-CEM, the CC50 was more than 10 µM. In addition, in data set [5], the solubility result is reported as “Insoluble”.

For the compound `O=C(O)[C@H](Cc1ccccc1)Nc1nc(NCc2cccc(CNc3nc(N[C@@H](Cc4ccccc4)C(=O)O)nc(N[C@@H](Cc4ccccc4)C(=O)O)n3)c2)nc(N[C@@H](Cc2ccccc2)C(=O)O)n1`, the EC50 in data set [1] and in data set [2] was more than 10 µM throughout. Also, the CC50 in the data set on CCRF-CEM was more than 10 µM. The solubility result in data set [5] is on record as “Insoluble”.

On to `CN[C@@H]1[C@H](O[C@@H]2OC[C@@H](O)[C@H](O)[C@H]2O)[C@@H](O)[C@H](O[C@H]2c3cc(C)c(C(=O)N[C@H](C)C(=O)O)c(O)c3-c3c(cc4c(c3O)C(=O)c3cc(OC)cc(O)c3C4=O)[C@@H]2O)O[C@@H]1C` [PRADIMICIN A], for which the EC50 in data set [1] came to 5.9 µM; in data set [2], 5.2 µM. For the same compound, in the data set on CCRF-CEM, the CC50 was more than 50 µM.

Take `O=C(O)[C@H](Cc1ccc(O)cc1)Nc1nc(NCc2cccc(CNc3nc(N[C@@H](Cc4ccc(O)cc4)C(=O)O)nc(N[C@@H](Cc4ccc(O)cc4)C(=O)O)n3)c2)nc(N[C@@H](Cc2ccc(O)cc2)C(=O)O)n1`: the outcome in data set [4] was Active. Moreover, the figures for the EC50 in data set [1] and in data set [2] were 80 µM and 148 µM, respectively. The CC50 in the data set on CCRF-CEM is more than 250 µM.

With `O=C(O)[C@H](Cc1ccc(O)cc1)Nc1nc(NCCOCCOCCNc2nc(N[C@@H](Cc3ccc(O)cc3)C(=O)O)nc(N[C@H](Cc3ccc(O)cc3)C(=O)O)n2)nc(N[C@@H](Cc2ccc(O)cc2)C(=O)O)n1`, the EC50 in data set [1] and in data set [2] was more than 250 µM in each case. Further, the CC50 in the data set on CCRF-CEM is more than 250 µM.

`O=C(O)C[C@H](Nc1nc(NCCN(CCNc2nc(N[C@@H](CC(=O)O)C(=O)O)nc(N[C@@H](Cc3c[nH]c4ccccc34)C(=O)O)n2)CCNc2nc(N[C@@H](Cc3c[nH]c4ccccc34)C(=O)O)nc(N[C@H](CC(=O)O)C(=O)O)n2)nc(N[C@@H](Cc2c[nH]c3ccccc23)C(=O)O)n1)C(=O)O`: the EC50 was more than 250 µM in data set [1] and 216 µM in data set [2]. Besides, the CC50 with CCRF-CEM is more than 250 µM.

As to `O=C(O)[C@H](Cc1c[nH]c2ccccc12)Nc1nc(NCc2ccccc2)nc(N[C@@H](Cc2c[nH]c3ccccc23)C(=O)O)n1`, the outcome in data set [4] was inactive.

For `O=C(O)[C@H](Cc1ccc(O)cc1)Nc1nc(N[C@@H](Cc2ccc(O)cc2)C(=O)O)nc(N2CCN(c3nc(N[C@@H](Cc4ccc(O)cc4)C(=O)O)nc(N[C@@H](Cc4ccc(O)cc4)C(=O)O)n3)CC2)n1`, the EC50 in data set [1] and in data set [2] was not below 250 µM in each case. Moreover, the CC50 in the data set on CCRF-CEM was more than 250 µM.

Consider `O=C(O)[C@H](Cc1ccc(O)cc1)Nc1nc(NCCN(CCNc2nc(N[C@@H](Cc3ccc(O)cc3)C(=O)O)nc(N[C@H](Cc3ccc(O)cc3)C(=O)O)n2)CCNc2nc(N[C@@H](Cc3ccc(O)cc3)C(=O)O)nc(N[C@H](Cc3ccc(O)cc3)C(=O)O)n2)nc(N[C@H](Cc2ccc(O)cc2)C(=O)O)n1`, for which the EC50 in data set [1] and in data set [2] was not below 250 µM in each case. Also, the CC50 with CCRF-CEM is more than 250 µM.

Take `CCc1c(CNc2nc(N[C@@H](Cc3ccc(O)cc3)C(=O)O)nc(N[C@@H](Cc3c[nH]c4ccccc34)C(=O)O)n2)c(CC)c(CNc2nc(N[C@@H](Cc3ccc(O)cc3)C(=O)O)nc(N[C@@H](Cc3c[nH]c4ccccc34)C(=O)O)n2)c(CC)c1CNc1nc(N[C@@H](Cc2ccc(O)cc2)C(=O)O)nc(N[C@@H](Cc2c[nH]c3ccccc23)C(=O)O)n1`: in data set [3], the outcome was Active. Besides, the values for the EC50 in data set [1] and in data set [2] were 24 µM and 26 µM, respectively. For the same compound, in the data set on CCRF-CEM, the CC50 was more than 250 µM.
